# Test results published in patent publication US6200966A, “Compositions for inhibiting airway wall inflammation” (Amrad Operations Pty. Ltd., priority 1996, dated 2001).
# Entries after “also recorded” stand apart in the source; their conditions may differ.
# Assays:
# [1] = system: cultured airway smooth muscle; details: cited from earlier work; for mitogenic activity on airway smooth muscle: various species
# [2] = system: human cultured airway smooth muscle cells; test: DNA synthesis: [3H]-thymidine incorporation; assay type: cell-based
# Experimental: (§1) Human bronchial airway smooth muscle was obtained from macroscopically normal lung resection specimens from lung transplant donors or recipients provided by the Alfred Hospital (Melbourne). Cultures were prepared as previously described in detail (Tomlinson et al., 1994). Briefly, the tissue was partially digested in Dulbecco's Modified Eagle's Medium (DMEM), [supplemented with 2 mM L-glutamine, 100 μg/ml streptomycin, 100 U/ml penicillin-G, 2 μg/ml amphotericin B, and 0.25% w/v bovine serum albumin (BSA)] containing 3 mg/ml collagenase for 30 minutes at 37° C. and approximately 0.5 g smooth muscle was further digested by a 2 hour incubation in 0.5 mg/ml elastase, followed by an 18 hour incubation in collagenase (3 mg/ml) at 37° C. Cell suspensions ere centrifuged (10 min, 100×g, 25° C.), washed three times in supplemented DMEM, resuspended in 25 ml DMEM containing 10% (v/v) heat-inactivated foetal calf serum (FCS), seeded into 25 cm^2 Falcon culture flasks and incubated (37° C., 5% CO2) for 7 to 10 days until monolayer confluence was reached. Cells were then harvested weekly by 10 min exposure to 0.5% trypsin, 1 mM EDTA and passaged at a 1:3 split ratio into 75 cm^2 Falcon culture flaskes. Cells at passage numbers 3 to 15 were used for experiments.
# (§2) Cells were subcultured into 24-well plates at a 1:3 ratio and allowed to grow to monolayer confluency over a 72-96 hour period in an atmosphere of 5% CO2 in air at 37° C. The serum-containing medium was replaced with serum-free DMEM for a 24 hour period to produce growth arrest. In some experiments, the cells were pretreated with 2-methoxyestradiol 30 min before the addition of mitogen. The stimulant (mitogen) was added to the appropriate wells together with a supplement containing insulin, transferrin, and selenium (Monomed A, 1% v/v). Monomed A was added to provide progression factors which are essential for the mitogenic activity of growth factors such as thrombin, epidermal growth factor (EGF) and basic fibroblast growth factor (bFGF) (Stewart et al., 1995a). Mitogens and inhibitors were left in contact with cells from the time of addition until the end of the experiment, unless indicated otherwise. Cells were incubated for 24 hours (37° C., 5% CO2) before being pulsed with [^3 H]-thymidine (1 μCi/ml for four hours) to measure incorporation of radiolabel into newly synthesized DNA, according to out previous study (Stewart et al., 1995). Incorporation of radioactivity was determined by filtration at the end of the pulse-labelling period. The medium containing the radioactivity was aspirated and the cells were lysed by addition of 200 μl of 0.1M NaOH. The DNA was immobilised by filtration in a binding harvester (Packard Filtermate 196) on glass fibre filters (Packard, standard), which were then washed with 3×3 ml volumes of distilled water and a single 1 ml volume of 100% ethanol. The dried filters were counted in a Packard Topcount liquid scintillation counter. Protein synthesis rates were determined in experiments of analogous design to those described above, but [^3 H]-leucine replaced [^3 H]-thymidine in the pulsing incubation of 4 hours. Furthermore, in experiments to determine the effects of mitogens and 2-methoxyestradiol on the rate of protein synthesis, incubations with mitogen were carried out for a period of 48 hours. The longer duration of these experiments was required to allow sufficient time for cell division to occur.
# (§3) Each treatment in an individual experiment was carried out in quadruplicate for DNA and protein synthesis experiments. Each experiment was performed in at least three different cultures obtained from three different individuals. For cell counting, single incubations were carried out in three cultures. Results are presented as grouped data from multiple cultures and are expressed as mean ±S. E. of n cultures. The degree of increment was calculated by dividing the response of treated wells by that of the control wells on the same 24-well plate.
# [3] = system: endothelial cells and fibroblasts; details: actively proliferating or non-quiescent; cited from earlier work
# [4] = system: airway smooth muscle cells; test: Morphological changes (cell rounding); assay type: cell-based, human
# [5] = system: human cultured airway smooth muscle cells; test: Protein synthesis: [3H]-leucine incorporation; assay type: cell-based; details: for [3H]-leucine incorporation: Table 5, unstimulated cells, mean
# Experimental: as §1, §2, §3
# [6] = system: human cultured airway smooth muscle cells; test: Protein synthesis: [3H]-leucine incorporation; assay type: cell-based; details: Table 5, unstimulated cells, mean
compound,measurement,setting,value
CCCCC[C@H](O)/C=C/[C@@H]1[C@@H](C/C=C\CCCC(=O)O)[C@H]2CO[C@@H]1C2 [U46619],mitogenic activity on airway smooth muscle,[1],only weakly active
"thrombin: thrombin (bovine plasma), mitogen",DNA synthesis ([3H]-thymidine incorporation) over unstimulated,[2]; 0.3 U/ml thrombin,8.4±3.1 fold
same,mitogenic activity on airway smooth muscle,[1],effective growth factor
EGF: epidermal growth factor,DNA synthesis ([3H]-thymidine incorporation) over unstimulated,"[2]; 3 nM EGF, fold series",4.5±0.7
same,mitogenic activity on airway smooth muscle,[1],most effective proliferative agents
heparin [reference compound],effect on proliferation of cultured airway smooth muscle,[1],inhibit proliferation of airway smooth muscle cells
same,proliferation of endothelial cells and fibroblasts,[3],enhance endothelial cell proliferation
"COc1cc2c(c(OC)c1OC)-c1ccc(OC)c(=O)cc1[C@@H](NC(C)=O)CC2 [colchicine, reference compound]",shape changes,[4]; colchicine 0.1-10 μM,similar
"C[C@]12CC[C@@H]3c4ccc(O)cc4CC[C@H]3[C@@H]1CC[C@@H]2O [17β-estradiol, 1,3,5[10]-estratriene-3, 17β-diol, reference compound]","FCS (1%)-stimulated DNA synthesis, 10 μM","[2]; FCS 1%, 10 μM",inhibition was observed at 10 μM
same,"DNA synthesis in response to FCS (1%), 3 and 10 μM",[2]; FCS 1%,inhibited DNA synthesis
same,"FCS (1%)-stimulated DNA synthesis, lower concentrations",[2]; FCS 1%,enhanced; also recorded: increased DNA synthesis
same,[3H]-leucine incorporation,[5]; concentration 0.3,103 % control
same,[3H]-leucine incorporation,[5]; concentration 3.0,87 % control
same,[3H]-leucine incorporation,[6]; concentration 1.0,89 % control
same,[3H]-leucine incorporation,[6]; concentration 10.0,100 % control
C[C@@H]1C[C@H]2[C@@H]3CCC4=CC(=O)C=C[C@]4(C)[C@@]3(F)[C@@H](O)C[C@]2(C)[C@@]1(O)C(=O)CO [dexamethasone],effect on proliferation of cultured airway smooth muscle,[1],anti-proliferative effect
"C[C@]12CC[C@@H]3c4cc(O)c(O)cc4CC[C@H]3[C@@H]1CC[C@@H]2O [2-hydroxyestradiol, 1,3,5[10]-estratriene-2,3,17β-triol]","DNA synthesis in response to FCS (1%), 3 and 10 μM",[2]; FCS 1%,inhibited DNA synthesis
same,"FCS (1%)-stimulated DNA synthesis, lower concentrations",[2]; FCS 1%,increased DNA synthesis
same,[3H]-leucine incorporation,[5]; concentration 0.3,107 % control
same,[3H]-leucine incorporation,[5]; concentration 1.0,94 % control
same,[3H]-leucine incorporation,[5]; concentration 3.0,56 % control
same,[3H]-leucine incorporation,[6]; concentration 10.0,51 % control
"NCCc1c[nH]c2ccc(O)cc12 [5HT, Serotonin, reference compound]",incorporation of [3H]-thymidine by serotonin,[2]; 5HT 0.1 nM up to 10 μM,no effect
same,incorporation of [3H]-leucine by serotonin,[5]; 5HT 10 nM,increased incorporation of [^3 H]-leucine
COc1cc2c(cc1O)CC[C@@H]1[C@@H]2CC[C@]2(C)C(=O)CC[C@@H]12 [2-methoxyestrone],concentration-response of enhancement of thrombin-stimulated DNA synthesis,[2]; thrombin,bell-shaped concentration-response curve
same,"enhancement of thrombin-stimulated DNA synthesis, 10 μM","[2]; thrombin 0.3 U/ml, 10 μM",level of enhancement declined at 10 μM
same,thrombin-stimulated DNA synthesis (analogues),"[2]; thrombin 0.3 U/ml, up to 3 μM",enhanced thrombin-stimulated DNA synthesis
"CC#C[C@]1(O)CC[C@H]2[C@@H]3CCC4=CC(=O)CCC4=C3[C@@H](c3ccc(N(C)C)cc3)C[C@@]21C [RU 486, reference compound]",effect on inhibition of DNA synthesis by 2-methoxyestradiol,"[2]; RU 486 (1 μM), 2-methoxyestradiol 3 μM, FCS 1%",no effect
same,shape changes in response to colchicine or 2-methoxyestradiol,[4]; RU 486 as antagonist,reduced the shape changes
NCCc1c[nH]cn1 [histamine],mitogenic activity on airway smooth muscle,[1],completely inactive
bFGF: human recombinant basic FGF,DNA synthesis ([3H]-thymidine incorporation) over unstimulated,"[2]; 300 pM bFGF, fold series",22.5±5.3
same,mitogenic activity on airway smooth muscle,[1],most effective proliferative agents
endothelin-1,mitogenic activity on airway smooth muscle,[1],only weakly active
